In patent US5232923A, “Catechol derivatives and pharmaceutical preparations containing same” (Mitsui Toatsu Chemicals, Incorporated, priority 1988, dated 1993):
Where two headings read alike, the source gives them in different places.

Tests used:
[1] = test system: production and secretion of NGF in mouse L-M cells; test: Promoting activity for the production and secretion of NGF in mouse L-M cells (ELISA of medium after 24 h); type: cell-based; conditions: for fold induction at 200 µM: Mus musculus, 24 h, read-out: NGF Increase Ratio; for NGF Concentration: 24 hours, mean of four determinations
Protocol: Promoting activity for the production and secretion of NGF in mouse L-M cells
The medium was cultured for 3 days at a temperature of 37° C. […] The sample of the derivative tested is contained in the medium at a prescribed concentration as illustrated in the Tables. […] Data are expressed as fold increase in NGF content of the medium over that cultivated in the absence of the derivative to be tested. […] Data are presented as the mean of four determinations. The results are illustrated in Tables 1-5.

[2] = test system: production and secretion of NGF in mouse brain astroglial cells; test: Promoting activity for the production and secretion of NGF in mouse brain astroglial cells (ELISA of medium after 24 h); type: cell-based; conditions: for NGF Concentration: 24 hours
Protocol: Promoting activity for the production and secretion of NGF in mouse brain astroglial cells
The experiment was performed by inducing astroglial cells from the mouse forebrain to a culture system according to the procedures of S. Furukawa et al. which is described in Biochem. Biophys. Res. Commun., 136, 57-63 (1986).
Forebrains of 8-days old mice were dissected out and cut into small pieces. The pieces were washed with calcium- and magnesium-free phosphate-bufferedsaline (hereinafter abbreviated as PBS), treated with 0.25% trypsin containing PBS at 37° C. for 30 minutes and triturated with a Pasteur pipet to give a suspension. Cells and cell clumps were recovered by centrifugation at 200 xg for 5 minutes. They were cultured in Dulbecco modified Eagle's medium (a product of Gibco Co. hereinafter abbreviated as DMEM) containing 10% fetal calf serum, 50 μ units/ml of penicillin, and 50 μg/ml of streptomycin, for 10 to 14 days with medium changes every 3 days. After completing confluency, the cells were dissociated by trypsin treatment and recultured in new culture flasks. This procedure was repeated further twice and more. The culture became a uniform cell cluster. The cell cluster for use in this invention can be stained not less than 97% in accordance with the PAP staining method (peroxidase/[…] staining method) using anti-human glial fibrillar acidic protein (GFAP) rabbit antiserum. The cells will hereinafter be referred to as astroglial cells.
Astroglial cells were innoculated in 24-well plates having a well surface area of 2.1 cm^2 (a product of Falcon Co.) at a cell density of about 3×10^4 cells/well and cultured for 3 days in DMEM medium supplemented with 10% of fetal calf serum. After completing confluency about ([…]), the medium was changed to DMEM medium (0.5 ml/well) supplemented with 0.5% of bovine serum albumin (fraction V) and cultured for 3 days. The culture was further continued with medium changes every 3 days. After cells were practically synchronized in the quiscent stage, the medium was changed to 0.5 ml of the same medium and containing a prescribed concentration of test sample as illustrated in the Tables. NGF in the medium after cultivating for 24 hours was determined by the ELISA as mentioned above. Data are expressed as fold increase in NGF content over that in the absence of the test sample. The lower detection limit of the ELISA is 0.25 pg/ml and the NGF content of control medium was normally 1-10 pg/0.5 ml/well. Data are presented as the mean of four determinations. The results are illustrated in Tables 1-5.

[3] = Table 1, L-M cells, sample concentration 0.2 mM, control 0.33
[4] = Table 1, L-M cells, sample concentration 0.2 mM, fold increase over control (1.00)
[5] = Mus musculus, 24 h, Table 3, sample concentration 0.4 mM, fold increase over control (1.00), read-out: NGF Increase Ratio
[6] = Table 3, sample concentration 0.4 mM, control 42.3
[7] = Table 2, L-M cells, sample concentration 0.2 mM, fold increase over control (1.00)
[8] = Table 2, L-M cells, sample concentration 0.2 mM, control 0.34

Row | Compound | NGF Concentration [1, 3] | fold induction at 200 µM [1, 7] | NGF Concentration [1, 8] | further results
1 | NCCc1ccc(O)c(O)c1 [Comparative compound, reference compound] | 1.30 ng/well | – | – | fold induction at 200 µM [1]: 3.94
2 | CCC(=O)NCCc1ccc(O)c(O)c1 [Compound 2] | 3.10 ng/well | – | – | fold induction at 200 µM [1, 4]: 9.39
3 | CC(=O)NCc1ccc(O)c(O)c1 [Compound 4] | 2.60 ng/well | – | – | fold induction at 200 µM [1, 4]: 7.88
4 | CCC(=O)NCc1ccc(O)c(O)c1 [Compound 5] | 2.75 ng/well | – | – | fold induction at 200 µM [1, 4]: 8.33
5 | CCCC(=O)NCc1ccc(O)c(O)c1 [Compound 6] | 2.95 ng/well | – | – | fold induction at 200 µM [1, 4]: 8.94
6 | CCC(=O)NCCCc1ccc(O)c(O)c1 [Compound 8] | 2.90 ng/well | – | – | fold induction at 200 µM [1, 4]: 8.79
7 | CCCC(=O)NCCCc1ccc(O)c(O)c1 [Compound 9] | 2.75 ng/well | – | – | fold induction at 200 µM [1, 4]: 8.33
8 | CCC(=O)N(C)CCc1ccc(O)c(O)c1 [Compound 11] | 3.32 ng/well | – | – | fold induction at 200 µM [1, 4]: 10.1
9 | CCC(=O)NCCc1ccc(OC(C)=O)c(OC(C)=O)c1 [Compound 14] | 3.49 ng/well | – | – | fold induction at 200 µM [1, 4]: 10.6
10 | CC(=O)NCc1ccc(OC(C)=O)c(OC(C)=O)c1 [Compound 16] | 2.72 ng/well | – | – | fold induction at 200 µM [1, 4]: 8.24
11 | CC(=O)Oc1ccc(CCN(C)C(C)=O)cc1OC(C)=O [Compound 18] | 3.95 ng/well | – | – | fold induction at 200 µM [1, 4]: 12
12 | CCCNCCc1ccc(O)c(O)c1 [Compound 20] | 3.62 ng/well | – | – | fold induction at 200 µM [1]: 11
13 | CNCc1ccc(O)c(O)c1 [Compound 22] | 2.97 ng/well | – | – | fold induction at 200 µM [1, 4]: 9
14 | CCNCc1ccc(O)c(O)c1 [Compound 23] | 3.08 ng/well | – | – | fold induction at 200 µM [1, 4]: 9.33
15 | CCCNCc1ccc(O)c(O)c1 [Compound 24] | 2.94 ng/well | – | – | fold induction at 200 µM [1, 4]: 8.91
16 | CCCCNCc1ccc(O)c(O)c1 [Compound 25] | 2.91 ng/well | – | – | fold induction at 200 µM [1, 4]: 8.82
17 | CCNCCCc1ccc(O)c(O)c1 [Compound 27] | 2.89 ng/well | – | – | fold induction at 200 µM [1, 4]: 8.76
18 | CCCNCCCc1ccc(O)c(O)c1 [Compound 28] | 2.79 ng/well | – | – | fold induction at 200 µM [1, 4]: 8.45
19 | CC(=O)Oc1ccc(CCN(C)C)cc1OC(C)=O [Compound 30] | 3.80 ng/well | – | – | fold induction at 200 µM [1]: 11.5
20 | CCN(C)CCc1ccc(OC(C)=O)c(OC(C)=O)c1 [Compound 31] | 3.76 ng/well | – | – | fold induction at 200 µM [1]: 11.4
21 | CCCCN(C)CCc1ccc(O)c(O)c1 [Compound 32] | – | – | – | fold induction at 400 µM [2, 5]: 4.82; NGF Concentration [2, 6]: 203.8 ng/well
22 | CCCCN(C)CCc1ccc(OC(C)=O)c(OC(C)=O)c1 [Compound 33] | – | – | – | fold induction at 400 µM [2, 5]: 4.74; NGF Concentration [2, 6]: 200.6 ng/well
23 | COC(=O)CCc1ccc(O)c(O)c1 [Compound 34] | – | 5.79 | 1.97 ng/well | –
24 | CCCOC(=O)CCc1ccc(O)c(O)c1 [Compound 36] | – | 5.53 | 1.88 ng/well | –
25 | COC(=O)Cc1ccc(O)c(O)c1 [Compound 38] | – | 4.79 | 1.63 ng/well | –
26 | CCCOC(=O)Cc1ccc(O)c(O)c1 [Compound 40] | – | 5.41 | 1.84 ng/well | –
27 | CCCCOC(=O)Cc1ccc(O)c(O)c1 [Compound 41] | – | 5.26 | 1.79 ng/well | –

Row | Compound | NGF Concentration [1, 3] | fold induction at 200 µM [1, 7] | NGF Concentration [1, 8] | further results
28 | COC(=O)CCCc1ccc(O)c(O)c1 [Compound 42] | – | 5.32 | 1.81 ng/well | –
29 | CCCOC(=O)CCCc1ccc(O)c(O)c1 [Compound 44] | – | 5.62 | 1.91 ng/well | –
30 | CCCCOC(=O)CCCc1ccc(O)c(O)c1 [Compound 45] | – | 5.41 | 1.84 ng/well | –
31 | COC(=O)CCc1ccc(OC(C)=O)c(OC(C)=O)c1 [Compound 46] | – | 5.91 | 2.01 ng/well | –
32 | CCCOC(=O)CCc1ccc(OC(C)=O)c(OC(C)=O)c1 [Compound 48] | – | 6.26 | 2.13 ng/well | –
33 | COC(=O)Cc1ccc(OC(C)=O)c(OC(C)=O)c1 [Compound 50] | – | 5.09 | 1.73 ng/well | –
34 | CCCOC(=O)Cc1ccc(OC(C)=O)c(OC(C)=O)c1 [Compound 52] | – | 5.53 | 1.88 ng/well | –
35 | CCCCOC(=O)Cc1ccc(OC(C)=O)c(OC(C)=O)c1 [Compound 53] | – | 4.79 | 1.63 ng/well | –
36 | COC(=O)CCCc1ccc(OC(C)=O)c(OC(C)=O)c1 [Compound 54] | – | 5.53 | 1.88 ng/well | –
37 | CCCOC(=O)CCCc1ccc(OC(C)=O)c(OC(C)=O)c1 [Compound 56] | – | 5.09 | 1.73 ng/well | –
38 | CCCCOC(=O)CCCc1ccc(OC(C)=O)c(OC(C)=O)c1 [Compound 57] | – | 5.32 | 1.81 ng/well | –
39 | CNC(=O)CCc1ccc(O)c(O)c1 [Compound 59, N-Methyl-3,4-dihydroxyphenylpropionamide] | – | 5.62 | 1.91 ng/well | –
40 | CCCNC(=O)CCc1ccc(O)c(O)c1 [Compound 61] | – | 5.91 | 2.01 ng/well | –
41 | NC(=O)Cc1ccc(O)c(O)c1 [Compound 62] | – | 4.79 | 1.63 ng/well | –
42 | CNC(=O)Cc1ccc(O)c(O)c1 [Compound 63] | – | 5.82 | 1.98 ng/well | –
43 | CCCNC(=O)Cc1ccc(O)c(O)c1 [Compound 65] | – | 5.21 | 1.77 ng/well | –
44 | CCCCNC(=O)Cc1ccc(O)c(O)c1 [Compound 66] | – | 5.85 | 1.99 ng/well | –
45 | NC(=O)CCCc1ccc(O)c(O)c1 [Compound 67] | – | 4.97 | 1.69 ng/well | –
46 | CNC(=O)CCCc1ccc(O)c(O)c1 [Compound 68] | – | 5.09 | 1.73 ng/well | –
47 | CCCNC(=O)CCCc1ccc(O)c(O)c1 [Compound 70] | – | 5.38 | 1.83 ng/well | –
48 | CCCCNC(=O)CCCc1ccc(O)c(O)c1 [Compound 71] | – | 5.71 | 1.83 ng/well | –
49 | CC(=O)Oc1ccc(CC(N)=O)cc1OC(C)=O [Compound 75] | – | 5.53 | 2.03 ng/well | –
50 | CCCCNC(=O)Cc1ccc(OC(C)=O)c(OC(C)=O)c1 [Compound 77] | – | 5.26 | 1.86 ng/well | –
51 | CC(=O)Oc1ccc(CCCC(N)=O)cc1OC(C)=O [Compound 78] | – | 4.94 | 1.79 ng/well | –
52 | CCCCNC(=O)CCCc1ccc(OC(C)=O)c(OC(C)=O)c1 [Compound 80] | – | 5.74 | 1.95 ng/well | –
53 | CCCCNC(=O)CCc1ccc(O)c(O)c1 [Compound 82] | – | – | – | fold induction at 200 µM ([2]; Mus musculus, 24 h, Table 4, sample concentration 0.2 mM, fold increase over control, read-out: NGF Increase Ratio): 8.35; NGF Concentration ([2]; Table 4, sample concentration 0.2 mM): 360.9 ng/well
54 | CCCCNC(=O)CCc1ccc(OC(C)=O)c(OC(C)=O)c1 [Compound 83] | – | – | – | fold induction at 400 µM ([2]; Mus musculus, 24 h, Table 4, sample concentration 0.4 mM, fold increase over control, read-out: NGF Increase Ratio): 8.82; NGF Concentration ([2]; Table 4, sample concentration 0.4 mM): 381.2 ng/well
